Measurements: patent publication EP2570123A1, “Use of 2,4-dichlorobenzyl alcohol having an anaesthetic effect” (Reckitt Benckiser Healthcare (UK) Limited, priority 2007, dated 2009)

Columns and labels:
[1] = target: T1, α-subunit of NaV1.2 neuronal sodium channels (Rattus norvegicus, UniProt P04775); assay: cell-based; conditions: for sensitivity at -70 mV holding potential compared to hyperpolarized holding potentials: -70 mV versus -100 and/or -150 mV; for nHR: Hill coefficient, resting state binding; for blocking potency compared with lidocaine (words): block of resting channels
T1 sequence (P04775 whole entry): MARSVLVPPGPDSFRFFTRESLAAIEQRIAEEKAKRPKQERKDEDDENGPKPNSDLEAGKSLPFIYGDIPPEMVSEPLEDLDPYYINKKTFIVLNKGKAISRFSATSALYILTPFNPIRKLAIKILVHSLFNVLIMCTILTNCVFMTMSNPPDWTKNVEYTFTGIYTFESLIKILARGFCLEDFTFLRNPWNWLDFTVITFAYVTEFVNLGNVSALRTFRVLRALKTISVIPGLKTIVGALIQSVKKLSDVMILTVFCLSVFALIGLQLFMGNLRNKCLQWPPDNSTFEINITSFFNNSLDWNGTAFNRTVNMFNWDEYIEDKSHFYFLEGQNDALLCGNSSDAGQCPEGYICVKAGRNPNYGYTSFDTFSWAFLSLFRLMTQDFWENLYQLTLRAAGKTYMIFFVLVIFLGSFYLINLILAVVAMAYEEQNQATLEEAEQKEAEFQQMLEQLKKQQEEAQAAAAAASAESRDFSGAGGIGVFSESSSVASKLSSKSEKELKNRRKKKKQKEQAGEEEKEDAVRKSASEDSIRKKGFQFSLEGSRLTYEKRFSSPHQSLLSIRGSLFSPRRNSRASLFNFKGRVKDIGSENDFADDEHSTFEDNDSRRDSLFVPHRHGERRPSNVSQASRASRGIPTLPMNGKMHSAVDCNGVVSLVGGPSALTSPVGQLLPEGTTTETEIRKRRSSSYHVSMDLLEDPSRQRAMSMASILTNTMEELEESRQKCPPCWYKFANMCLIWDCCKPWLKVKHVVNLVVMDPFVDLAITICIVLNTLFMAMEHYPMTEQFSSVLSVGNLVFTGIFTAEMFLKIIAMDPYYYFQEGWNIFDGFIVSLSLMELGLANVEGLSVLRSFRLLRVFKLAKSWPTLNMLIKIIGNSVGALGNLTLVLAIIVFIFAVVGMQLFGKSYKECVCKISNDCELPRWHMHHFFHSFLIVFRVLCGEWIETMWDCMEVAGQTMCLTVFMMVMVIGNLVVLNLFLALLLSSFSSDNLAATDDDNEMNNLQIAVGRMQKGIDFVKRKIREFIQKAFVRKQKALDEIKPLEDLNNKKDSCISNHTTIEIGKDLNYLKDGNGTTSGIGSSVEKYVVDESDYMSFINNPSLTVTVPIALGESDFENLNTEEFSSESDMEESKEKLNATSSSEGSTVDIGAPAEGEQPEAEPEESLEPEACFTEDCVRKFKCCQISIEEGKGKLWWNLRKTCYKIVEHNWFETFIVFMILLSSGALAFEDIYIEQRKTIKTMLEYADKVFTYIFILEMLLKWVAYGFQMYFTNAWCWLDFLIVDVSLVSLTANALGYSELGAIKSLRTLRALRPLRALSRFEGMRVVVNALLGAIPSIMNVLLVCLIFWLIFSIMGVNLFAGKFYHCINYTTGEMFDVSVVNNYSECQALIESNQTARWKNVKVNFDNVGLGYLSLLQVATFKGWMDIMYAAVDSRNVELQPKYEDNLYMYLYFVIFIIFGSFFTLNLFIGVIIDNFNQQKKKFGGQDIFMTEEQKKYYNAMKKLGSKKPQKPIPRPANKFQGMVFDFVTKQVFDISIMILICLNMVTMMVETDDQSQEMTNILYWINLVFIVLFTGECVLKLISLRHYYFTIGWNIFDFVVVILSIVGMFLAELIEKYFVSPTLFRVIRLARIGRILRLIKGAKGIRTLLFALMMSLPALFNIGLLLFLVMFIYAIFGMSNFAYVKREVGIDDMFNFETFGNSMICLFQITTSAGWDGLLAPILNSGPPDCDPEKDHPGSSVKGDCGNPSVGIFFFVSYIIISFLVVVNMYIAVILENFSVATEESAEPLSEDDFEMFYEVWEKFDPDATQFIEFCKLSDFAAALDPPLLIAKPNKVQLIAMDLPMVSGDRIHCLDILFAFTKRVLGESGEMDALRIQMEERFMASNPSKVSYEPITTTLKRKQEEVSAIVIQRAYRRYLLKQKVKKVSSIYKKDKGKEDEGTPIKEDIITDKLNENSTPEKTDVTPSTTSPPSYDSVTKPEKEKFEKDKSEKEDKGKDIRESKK
Method: Stably transfected HEK 293 cell lines expressing the α-subunit of NaV1.2 neuronal sodium channels from a rat were used. The expression vector pRc/CMV (Invitrogen, San Diego, USA) was used for mammalian transfection. Transfection was performed using calcium phosphate precipitation. Permanent expression was achieved by selection for resistance to the aminoglycoside antibiotic geneticin G418 (Life Technology, Eggenstein, Germany).
The stock solution was then dissolved directly in bath solution. The bath solution contained [mM] NaCl 140, MgCl2 1.0, KCl 4.0, CaCl2 2.0, Hepes 5.0, dextrose 5.0. Patch electrodes contained [mM] CsCl2 130, MgCl2 2.0, EGTA 5.0, Hepes 10. All solutions were adjusted to 290 mosm 1^-1 by the addition of mannitol and to pH 7.4 by the addition ofCsOH.
Standard whole-cell voltage-clamp experiments were performed at 20°C. Each experiment consisted of test recordings with the drug present at only one concentration, and of drug-free control recordings before and after the test. Each cell was exposed to one test concentration only. At least three or five independent experiments were performed at each concentration depending on the active being tested.
For data acquisition and further analysis, a EPC9 digitally-controlled amplifier was used in combination with Pulse and Pulse Fit software (HEKA Electronics, Lambrecht, Germany). The EPC9 provides automatic subtraction of capacitive and leakage currents by means of a prepulse protocol. The data were filtered at 10 kHz and digitized at 20 µs per point. The input resistance of the patch pipettes was 2.0-3.5 MΩ and the capacitances of the cells were 9-15 pF; the residual series resistance (after 50% compensation) was 1.2-2.5 MΩ. Experiments with a rise in series resistance were rejected. To minimize time-dependent shifts in the voltage-dependence of steady-state inactivation, all test experiments were performed within 5 min of patch rupture.
Drug effects on the peak current amplitude were assessed at a hyperpolarized membrane potentials (-100 mV and -150mV), at a holding potential close to the normal resting potential in physiological conditions (-70 mV), and, additionally, at -100 mV in the presence of a fraction of slow inactivated channels. Slow inactivation was induced by long (2.5 s) prepulses to -90, -70, -50, -30 and -10 mV, followed by a short hyperpolarization to allow recovery from fast-inactivation. In our protocol the recovery interval was prolonged to 100 ms (instead of 10 ms originally described) in order to allow sufficient time not only for drug-free, but also for all drug-bound states to recover from fast inactivation. The residual sodium current (Inorm) in the presence of a drug (with respect to the peak current elicited with the same protocol during wash-out) elicited with a single test pulse to 0 mV was plotted against the applied concentration of the drug [C]. Concentration-response-curves were fitted using a Hill equation yielding the concentrations for half-maximum channel blockade (ICR50), and the respective Hill coefficients nH. (I)/(Imax) = (IC50^nH)/(IC50^nH + C^nH) [formula] (I)/(Imax) = a(ICR50^nH)/(ICR50^nH + C^nH) + (1-a)(ICI50^nH)/(ICI50^nH + C^nH) [formula]
In the presence of Hexetidine, a 2-state Hill equation, Eq. 2, was applied, yielding the concentrations for half-maximum channel blockade in the inactivated state (ICI50), the respective Hill coefficient nH, and the respective amplitudes a and (1-a). The values previously obtained for ICR50 and nH were entered as constant factors.

[2] = target: T1, α-subunit of NaV1.2 neuronal sodium channels; assay: Whole-cell voltage-clamp, double-pulse protocol: steady-state availability (fast inactivation), voltage shift and model-dependent affinity for inactivated channels; format: cell-based; set-up: expressed in transfected cells; host or cells: HEK 293, stably transfected with expression vector pRc/CMV and selected with G418; conditions: for nHI: Hill coefficient for inactivated state binding, model fit of Eq.4; for maximum shift in voltage-dependence of sodium channel availability: negative shift in midpoints of steady-state availability plots
Method: Transfection was performed using calcium phosphate precipitation. […] Successful channel expression was verified electrophysiologically.
The bath solution contained [mM] […] Patch electrodes contained [mM]
Each cell was exposed to one test concentration only.
Experiments with a rise in series resistance were rejected.
Drug binding to inactivated channels is hardly accessible to a direct experimental approach, because inactivated channel states and all drug-bound channel states are unavailable on depolarization. A model-dependent method is generally applied to determine the affinity to fast-inactivated channel states. The voltage-dependence of the block and the affinity for fast-inactivated channel states was further assessed by applying a double-pulse protocol. Currents elicited by test pulses (Itest), starting from varying prepulse potentials (from -150 mV to -5 mV), normalized to the current elicited at the most hyperpolarized prepotential (-150 mV), represent the relative fraction of channels that have not been inactivated during the 100 ms inactivating prepulse. Boltzmann fits to the resulting current-voltage plots yield the membrane potential at half-maximum channel availability (V0.5) and the slope factor k, reflecting the 'voltage sensitivity' of inactivation gating (see Eq. 3). (I)/(Imax) = (1)/(1 + e^(((Vtest -V0.5)/(k)))) [formula]
In control conditions, the parameters of the Boltzmann fits reflect the voltage-dependence of the distribution between resting and fast-inactivated channels (the availability curve). In the presence of the drug, the steady-state availability curve reflects drug association with rested and fast-inactivated channels, respectively. […] The underlying assumption is that the higher amount of channel blockade achieved with consecutive membrane depolarization is determined by the distribution of channels between resting and fast-inactivated states along the voltage axis (i.e. the channel availability curve), and by the different binding affinities of the blocking drug for the two channel states. The voltage shift ΔV0.5 in the presence of a drug would depend upon the drug concentration [C] according to Eq. 4. A fit of the model to ΔV0.5 plotted against concentration yields estimates for the concentration for half-maximum effect on fast-inactivated channels ICI50 and the Hill-type coefficient for drug binding to inactivated channels n: ΔV0.5 = k.ln[(1+([C])/(ICR50))/(1+(([C])^n)/(ICR50^n)) [formula]
K and ICR50 are entered as constant factors. K is the slope factor of the availability curve in the controls and ICR50 is the concentration for half-maximum effect on resting channels, obtained at -100 mV holding potential.

[3] = -100 mV, after application of higher concentrations (> EC50)
[4] = ECR50, half maximum blocking concentration, resting channels, fit to concentration-response plots at -150 mV holding potential, HEK 293, 20°C
[5] = estimate for inactivated channels, model fit of Eq.4 to concentration-dependence of the voltage shift in the availability curve, read-out: ECI50

Structure (SMILES): CCCCCc1ccc(C)cc1O [AMC, amylmetacresol]
- IC50 [1]: 55 µM
- currents during wash-out, % of control current ([1]; -70 mV holding potential): 64 ± 9%
- currents during wash-out, % of control current ([1]; -100 mV holding potential): 91 ± 3%
- currents during wash-out, % of control current [1, 3]: 94 ± 6%
- currents during wash-out, % of control current ([1]; -150 mV holding potential): 90 ± 3%
- potency for block of resting sodium channels relative to lidocaine ([1]; depolarization from the resting state): around 10 fold
- IC50 [2]: 22000 nM
- ECI50 lower than the ECR50 ([2]; inactivated versus resting channels): around 3 fold

Structure (SMILES): OCc1ccc(Cl)cc1Cl [DCBA, 2,4-dichlorobenzyl alcohol]
- currents during wash-out, % of control current ([1]; -70 mV holding potential): 63 ± 9%
- sensitivity at -70 mV holding potential compared to hyperpolarized holding potentials [1]: slightly increased
- currents during wash-out, % of control current ([1]; -100 mV holding potential): 89 ± 5%
- currents during wash-out, % of control current amplitude ([1]; -100 mV holding potential, after 300 and 500 µM DCBA): 71 ± 3%
- currents during wash-out, % of control current ([1]; -150 mV holding potential): 88 ± 3%
- IC50 [1, 4]: 657 µM
- nHR ([1]; -150 mV holding potential): 3.5
- blocking potency compared with lidocaine (words) ([1]; listed as Dichlorobenzyl alcohol): about as potent as lidocaine
- blocking potency compared with lidocaine (words) ([1]; listed as dichlorobenzyl alcohol): comparable
- estimated affinity to inactivated channels compared to resting channels [2]: several fold higher
- nHI [2]: 0.4
- IC50 [2, 5]: 5200 nM
- maximum shift in voltage-dependence of sodium channel availability [2]: -15 mV

Structure (SMILES): CCCCCCc1ccc(O)cc1O [HR, hexylresorcinol]
- currents during wash-out, % of control current ([1]; -100 mV holding potential): 94 ± 4%
- currents during wash-out, % of control current [1, 3]: 90 ± 10%
- currents during wash-out, % of control current ([1]; -150 mV holding potential): 95 ± 3%
- IC50 [1, 4]: 21 µM
- IC50 [2, 5]: 300 nM

Structure (SMILES): CCCCC(CC)CN1CN(CC(CC)CCCC)CC(C)(N)C1 (stereo not drawn) [HT, hexetidine]
- concentrations toxic for the seal in whole cell experiments [1]: above 30 µM
- block of sodium inward currents ([1]; 100 µM, 3 experiments, not solely attributable to specific channel block): complete block
- currents during wash-out, % of control current ([1]; -70 mV holding potential): 47 ± 11%
- sensitivity at -70 mV holding potential compared to hyperpolarized holding potentials [1]: increased
- currents during wash-out, % of control current ([1]; -150 mV holding potential): 80 ± 8%
- IC50 [1, 4]: 35 µM
- nHR ([1]; -150 mV holding potential): 1.08
- IC50 ([1]; estimated EC50, high-affinity binding site, biphasic concentration-response curve, two distinct binding sites): 0.001 µM
- inhibition at 0.1 µM ([1]; read-out: block, % of the control current amplitude): 41 ± 13%
- estimated affinity to inactivated channels compared to resting channels [2]: several fold higher
- nHI [2]: 0.5
- IC50 [2, 5]: 50 nM
- maximum shift in voltage-dependence of sodium channel availability [2]: -21 mV
